Experimental data taken from patent US20200339544A1 (JOINT STOCK COMPANY "BIOCAD", priority 2017, published 2020).
Read-outs that look alike come from different tables or passages of the source.

How the values were obtained:
[1] = Chemical stability in human blood plasma; assay type: in vitro ADME; details: pooled human blood plasma; 10 μm; 4 hours at 37° C.; substance amount remaining
Method: 2) Determination of chemical stability in human blood plasma.
Determination of stability in human blood plasma was performed using pooled human blood plasma taken from ten healthy donors. The initial candidate solution (10 mM in DMSO) was diluted with pooled blood plasma to a concentration of 10 μm (test solution). The test solution was incubated in a dry block thermostat for 4 hours at 37° C. HPLC with Agilent 1200 liquid chromatography system (Agilent, USA) was employed to determine peak areas of the compounds in test samples, said peak areas corresponding to the initial test time (prior to incubation) and the final test time (after incubation in a dry block thermostat for 4 hours at 37° C.), proteins were preliminarily precipitated with acetonitrile. We used gradient elution (1 mL/min flow rate). Substance amount in % in a sample after thermostatting was determined.
The stability of the compounds was estimated.

[2] = Enzyme stability in human liver S9 fractions; assay type: in vitro ADME; details: 0.5 mg/mL pooled human liver S9 fractions; 10 μM compound; 37° C.; pH 7.4; read-out: Stability in liver S9 fractions, Clint
Method: Determination of enzyme stability.
Measuring of candidate enzyme stability enabled estimation of the stability of the compounds towards the action of liver enzymes.
Enzyme degradation rate was measured by incubating the reaction mixture in a dry block thermostat at 37° C., said reaction mixture comprising 0.5 mg/mL of pooled human liver S9 fractions (XenoTech, USA, cat # H0610), 10 μM compound, 2 mM β-nicotinamide adenine dinucleotide (Carbosynth, UK, cat # NN10871) and 4 mM magnesium chloride in 0.1 M sodium-phosphate buffer, pH=7.4. The reaction was quenched with acetonitrile (100 μL of acetonitrile/100 μL of the reaction mixture). After quenching, the samples were centrifuged at 10000 rpm for 10 minutes. Supernatant fluid was tested by chromatographic technique using Agilent1200 (Agilent, USA). We used gradient elution (1 mL/min flow rate). A graph of the logarithm of substance's peak area as a function of time was made. The dependent factor of the line corresponded to the elimination rate constant K based on which the drug's half-life T½ and intrinsic clearance CLint were calculated:
Based on the data obtained, candidate enzyme stability in human liver S9 fractions was determined (see Table 11).

[3] = biological target: T1, WT EGFR (Wild-Type EGFR) (Homo sapiens, UniProt P00533); assay: Inhibition of WT EGFR kinase activity (ADP-Glo); assay type: biochemical
T1 construct: purchased SignalChem
Method: (§1) To assess IC50 values of the compounds disclosed herein, a biochemical assay of inhibition of kinase activity in a non-cellular system and a functional cellular anti-proliferation assay were used.
(§2) To assess inhibition of WT EGFR (Wild-Type EGFR), DM EGFR (DoubleMutantEGFR, L828R/T790M) kinase activity, SignalChem kinase system and ADP-Glo™ Kinase Assay (V9102, Promega) detection kit were used.
(§3) The measurements were carried out in a 25 μL reaction volume using a 96-well plate. […] The solution of 0.5 mg/mL peptide substrate and 50 μM ATP in the same buffer were added; the solution was incubated for 180 minutes at 37° C. To detect the amount of ATP taken up during the kinase reaction, the ADP Glo Detection Kit (V9102, Promega) was used. The luminescence was measured with the Infinite M200Pro plate spectrophotometer (Tecan, Switzerland). IC50 values were calculated using Magellan 7.2 software (Tecan, Switzerland) approximating experimental points by four-parameter logistic model with the optimization by Levenberg-Marquardt (Table 14).

[4] = biological target: T2, DM EGFR (DoubleMutantEGFR, L828R/T790M) (Homo sapiens, UniProt P00533, L858R/T790M); assay: Inhibition of DM EGFR kinase activity (ADP-Glo); assay type: biochemical; details: for IC50: inhibition of kinase activity, EGFR DM (L828R/T790M); for SI, IC50(WT)/IC50(DM): selectivity index, kinase EGFR WT vs EGFR DM
T2 construct: purchased SignalChem
Method: as §1, §2, §3

[5] = system: A549 (lung adenocarcinoma, WT); assay: Antiproliferative activity on A549 cells (Alamar Blue); assay type: cell-based; details: Homo sapiens, antiproliferative test
Method: (§4) Antiproliferative activity of EGFR inhibitors (Tables 15 and 16) was measured in cell-based bioassay on continuous epithelial cell cultures: A549 (lung adenocarcinoma, ATCC® CRM-CCL-185™—WT), HCC827 (lung adenocarcinoma, ATCC® CRL-2868™—SM (SingleMutantEGFR, exon19delE746-A750)) and H1975 (lung adenocarcinoma, ATCC® CRL-5908™—DM (DoubleMutantEGFR, L828R/T790M)) using cell viability reagent Alamar Blue (ThermoFisher, # DAL1100). Cells were cultured in 10% FBS-supplemented (Gibco, #16140071) RPMI-1640 (PanEco, S330p) for at least 1 passage after thawing, washed with PBS and passaged in 96-well culture plates (3599, Corning) with RPMI-1640 growth medium supplemented with 2% FBS in an amount of 5*10^3 cells/well for A549, 10*10^3 cells/well for HCC827 and 15*10^3 cells/well for H1975 in 100 μL, and incubated at 37° C. in an incubator (Thermo Forma, USA) under 5% of CO2 for 16-18 h for cell attachment.
(§5) The test compounds were dissolved in DMSO in the selected range of concentrations and transferred to RPMI-1640 medium (PanEco, S330p) supplemented with 2% FBS. After adding 50 μl of the prepared dilutions to the cells, the incubation mixture contained the final concentrations of the test substances and no more than 1% DMSO. The plates were Incubated at 37° C. for 72 h. After incubation, 15 μl of Alamar Blue vital dye (ThermoFisher, # DAL1100) was added to each well. The plates were shaken on an orbital shaker (Biosan, Latvia) and further incubated for 3-5 h in a CO2 incubator (Thermo Forma, USA). Number of living cells was estimated using a plate spectrophotometer Infinite M200Pro, (Tecan, Switzerland) measuring fluorescent signal at the excitation wavelength (λEx) of 540 nm and emission wavelength (λEm) of 590 nm.
IC50 was calculated using Magellan 7.2 software (Tecan, Switzerland) approximating experimental points by four-parameter logistic model with the optimization by Levenberg-Marquardt.
(§6) The ratio between IC50 for cell lines containing wild-type EGFR (A549) and IC50 for cell lines containing target mutation L828R/T790M (H1975) is the selectivity index (SI): […]

[6] = system: H1975 (lung adenocarcinoma, DM, L828R/T790M); assay: Antiproliferative activity on H1975 cells (Alamar Blue); assay type: cell-based; details: for IC50: Homo sapiens, NCI-H1975, H1975 cells; for SI IC50(A549)/IC50(DM): selectivity index, A549 vs H1975 cells
Method: as §4, §5
IC50 was calculated using Magellan 7.2 software (Tecan, Switzerland) approximating experimental points by four-parameter logistic model with the optimization by Levenberg-Marquardt. […]
as §6

[7] = General cytotoxicity on HepG2 cells; assay type: cell-based; details: human; general cytotoxicity, HepG2 cells, 72 hours, average of several tests
Method: (§7) The CC50 values were determined in the test for General cytotoxicity on HepG2 cells (rhepatocellular carcinoma, ATCC® HB-8065™) (Table 16). The cells were subcultured in DMEM medium (PanEco, S420p) supplemented with 10% FBS (Gibco, #16140071) for at least 1 passage after thawing, washed with PBS and passaged in 96-well culture plates (3599, Corning) at a concentration of 2*10^4 cells/100 μL per well, and incubated for 16-18 h. The test substances were titrated in DMSO and transferred to DMEM (PanEco, S420p) medium supplemented with 2% FBS, added to the cells and incubated at 37° C. for 72 hours; viability of the cells was then assessed using Alamar Blue dye (ThermoFisher, # DAL1100). CC50 was determined similarly to IC50.
(§8) The ratio between CC50 for HepG2 cell line and IC50 for H1975 cell line is the therapeutic index (TI): […]

[8] = system: HepG2 cells; assay: General cytotoxicity on HepG2 cells; assay type: cell-based; details: therapeutic index, CC50 HepG2 / IC50 H1975
Method: as §7, §8

[9] = average values obtained in several tests, Table 16, read-out: H1975 (DM) IC50
[10] = antiproliferative test, Table 15, read-out: IC50 H1975 (DM)

Row | SMILES | Stability in blood plasma, % [1] [%] | Intrinsic clearance in human liver S9 fractions at 10 µM [2] [µL/min/mg] | IC50 [3] [µM] | IC50 [4] [µM] | SI, IC50(WT)/IC50(DM) [4] | IC50 [5] [µM] | IC50 [6, 9] [µM] | IC50 [6, 10] [µM] | SI IC50(A549)/IC50(DM) [6] | CC50 at 72 h [7] [µM] | TI, CC50/IC50 [8]
1 | C=CC(=O)Nc1cc(Nc2cc(C(=O)c3ccc(OC)cc3OC)ccn2)c(OC)cc1N(C)CCN(C)C [EGFR_3365_87, N-(5-((4-(2,4-dimethoxybenzoyl)pyridin-2-yl)amino)-2-((2-(dimethylamino)ethyl)(methyl)amino)-4-methoxyphenyl)acrylamide] | 73.3 | 11.6 | 0.0674 | 0.00275 | 24.50 | 8.02 | 0.0576 | 0.0576 | 139 | 19.5 | 338
2 | C=CC(=O)Nc1cc(Nc2cc(C(=O)c3ccccc3OC)ccn2)c(OC)cc1N(C)CCN(C)C [EGFR_3365_88, N-(2-((2-(dimethylamino)ethyl)(methyl)amino)-4-methoxy-5-((4-(2-methoxybenzoyl)pyridin-2-yl)amino)phenyl)acrylamide] | 68.2 | 17 | 0.0782 | 0.00509 | 15.37 | 14.9 | 0.0626 | 0.0626 | 238 | 26.9 | 429
3 | C=CC(=O)Nc1cc(Nc2cc(C(=O)c3ccc(OCCOC)cc3)ccn2)c(OC)cc1N(C)CCN(C)C [EGFR_3365_93, N-(2-((2-(dimethylamino)ethyl)(methyl)amino)-4-methoxy-5-((4-(4-(2-methoxyethoxy)benzoyl)pyridin-2-yl)amino)phenyl) acrylamide] | 96.3 | 19.5 | 0.0415 | < 0.001 | >41.48 | 9.15 | 0.104 | 0.104 | 88 | 23.6 | 227
4 | C=CC(=O)Nc1cc(Nc2nccc(C(=O)c3ccc(OCCC)cc3OC)n2)c(OC)cc1N(C)CCN(C)C [EGFR_3365_101, N-(2-((2-(dimethylamino)ethyl)(methyl)amino)-4-methoxy-5-((4-(2-methoxy-4-propoxybenzoyl)pyrimidin-2-yl)amino)phenyl)acrylamide] | 99.2 | 21.3 | 0.0293 | 0.00254 | 11.55 | 8.32 | 0.0129 | 0.0129 | 645 | 16 | 1238
5 | C=CC(=O)Nc1cc(Nc2nccc(C(=O)c3ccc(OC(C)C)cc3OC)n2)c(OC)cc1N(C)CCN(C)C [EGFR_3365_103, N-(2-((2-(dimethylamino)ethyl)(methyl)amino)-5-((4-(4-isopropoxy-2-methoxybenzoyl)pyrimidin-2-yl)amino)-4-methoxyphenyl) acrylamide] | 96.2 | 20.4 | 0.0226 | 0.00214 | 10.60 | 12.6 | 0.0132 | 0.0132 | 954 | 29.4 | 2232
6 | C=CC(=O)Nc1cc(Nc2nccc(C(=O)c3ccc(OC)cc3OC(C)C)n2)c(OC)cc1N(C)CCN(C)C [EGFR_3365_104] | 77.2 | 21.8 | 0.113 | 0.00642 | 17.61 | 3.78 | 0.258 | 0.258 | 15 | 18.7 | 73
7 | C=CC(=O)Nc1cc(Nc2nccc(C(=O)c3ccc(NCCOC)cc3)n2)c(OC)cc1N(C)CCN(C)C [EGFR_3365_105, N-(2-((2-(dimethylamino)ethyl)(methyl)amino)-4-methoxy-5-((4-(4-((2-methoxyethyl)amino)benzoyl)pyrimidin-2-yl)amino)phenyl)acrylamide] | 89.4 | 11.3 | 0.109 | 0.00293 | 37.17 | 84.1 | 0.0216 | 0.0216 | 3898 | 45.6 | 2114
